Reference: patent EP0136569A2, “Isoflavone derivatives, their production and use” (Takeda Chemical Industries, Ltd., priority 1983, dated 1985)

System: young oophorectomized rats
Test: Estrogenic activity (uterine wet weight) in young oophorectomized rats
Type: in vivo, Sprague-Dawley rats
Description: Test Example 1 Estrogenic activity of 7-isopropoxy-3-(4-hydroxyphenyl)-4H-1-benzopyran-4-one (hereinafter referred to as compound A) in young oophorectomized rats Sprague-Dawley rats, 33 days old and 11 days after oophorectomy for elimination of endogenous estrogenic activity, were used in groups of 6 to 7 animals. Compound A was suspended in a 1% aqueous solution of hydroxypropyl-cellulose and administered orally for 3 days, while as a representative example of the conventional estrogen drug, estrone was dissolved in sesame oil and administered subcutaneously for 3 days. On the fourth day, each animal was autopsied and its uterine wet weight was recorded.

In the case of `CC(C)Oc1ccc2c(=O)c(-c3ccc(O)cc3)coc2c1` [Compound A, 7-isopropoxy-3-(4-hydroxyphenyl)-4H-1-benzopyran-4-one], the “Uterine wet weight (mg ± S.D.)” value (daily dose 6.25 mg/kg, orally for 3 days, autopsy on fourth day, n=7) is reported as 32.6 ± 1.2 mg, the “Uterine wet weight (mg ± S.D.)” value (daily dose 25 mg/kg, orally for 3 days, autopsy on fourth day, n=7) is reported as 39.2 ± 2.3 mg and the “Uterine wet weight (mg ± S.D.)” value (daily dose 100 mg/kg, orally for 3 days, autopsy on fourth day, n=7, significant vs control (P<0.01)) is reported as 56.3 ± 3.7 mg. The “Uterine wet weight (mg ± S.D.)” value (daily dose 400 mg/kg, orally for 3 days, autopsy on fourth day, n=6, significant vs control (P<0.01)) was 83.0 ± 6.9 mg and the “uterine weight increasing effect, dose-response curve” value (orally for 3 days, daily dose levels of 100 mg/kg and 400 mg/kg) was “uterine weight increasing effect with a dose-response curve of moderate gradient”.

`C[C@]12CC[C@@H]3c4ccc(O)cc4CC[C@H]3[C@@H]1CCC2=O` [Estrone, estrone, reference compound] was tested, and the “Uterine wet weight (mg ± S.D.)” value (daily dose 0.0025 mg/kg, subcutaneously for 3 days in sesame oil, n=7, significant vs control (P<0.01)) was 121.1 ± 7.0 mg, the “Uterine wet weight (mg ± S.D.)” value (daily dose 0.005 mg/kg, subcutaneously for 3 days in sesame oil, n=7, significant vs control (P<0.01)) was 200.5 ± 14.3 mg and the “Uterine wet weight (mg ± S.D.)” value (daily dose 0.01 mg/kg, subcutaneously for 3 days in sesame oil, n=7, significant vs control (P<0.01)) was 247.2 ± 14.6 mg.
